We go through six molecules from ChEMBL document CHEMBL5465560, “Selectivity Literature for EUbOPEN Chemogenomic Library” (2024).

For experiment [1], the target named is Ribosomal protein S6 kinase alpha-6 (Homo sapiens, UniProt Q9UK32). As to the kind of experiment: Selectivity interaction (KinomeScan (DiscoverX)) EUB0001619a RPS6KA6. The note with it: at 1 µM.
The target of experiment [2] is T1, Serine/threonine-protein kinase Nek9 (Homo sapiens) (UniProt Q8TD19).
T1 sequence (whole entry): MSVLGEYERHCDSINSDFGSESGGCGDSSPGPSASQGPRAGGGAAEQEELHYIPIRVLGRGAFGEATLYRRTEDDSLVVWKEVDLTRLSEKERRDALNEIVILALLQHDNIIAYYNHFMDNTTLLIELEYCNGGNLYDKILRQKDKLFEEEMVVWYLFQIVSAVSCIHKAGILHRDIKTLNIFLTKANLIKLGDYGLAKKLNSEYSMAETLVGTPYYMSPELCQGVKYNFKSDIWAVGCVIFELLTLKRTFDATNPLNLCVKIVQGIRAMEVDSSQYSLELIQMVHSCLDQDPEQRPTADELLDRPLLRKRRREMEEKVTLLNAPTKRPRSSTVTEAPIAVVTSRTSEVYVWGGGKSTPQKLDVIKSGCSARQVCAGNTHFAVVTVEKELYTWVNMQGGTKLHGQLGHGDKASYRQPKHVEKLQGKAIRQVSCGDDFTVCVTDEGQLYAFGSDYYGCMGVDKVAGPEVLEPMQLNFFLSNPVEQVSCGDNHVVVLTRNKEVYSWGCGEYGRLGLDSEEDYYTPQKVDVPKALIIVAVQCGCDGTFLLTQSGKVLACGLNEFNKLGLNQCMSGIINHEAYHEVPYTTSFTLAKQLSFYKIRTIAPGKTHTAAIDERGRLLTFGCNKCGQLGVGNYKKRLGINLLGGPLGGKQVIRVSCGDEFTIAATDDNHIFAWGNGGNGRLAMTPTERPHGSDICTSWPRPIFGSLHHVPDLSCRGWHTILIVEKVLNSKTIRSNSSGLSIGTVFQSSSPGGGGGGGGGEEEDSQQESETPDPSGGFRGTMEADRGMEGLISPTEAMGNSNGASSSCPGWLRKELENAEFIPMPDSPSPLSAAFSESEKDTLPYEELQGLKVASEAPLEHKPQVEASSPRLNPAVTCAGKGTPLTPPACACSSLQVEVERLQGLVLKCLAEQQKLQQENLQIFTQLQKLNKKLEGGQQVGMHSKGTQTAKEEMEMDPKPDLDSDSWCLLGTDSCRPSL
The following applies: at 10 µM.

Experiment [3] concerns the target T2, Serine/threonine-protein kinase DCLK2 (Homo sapiens) (UniProt Q8N568).
T2 sequence (whole entry): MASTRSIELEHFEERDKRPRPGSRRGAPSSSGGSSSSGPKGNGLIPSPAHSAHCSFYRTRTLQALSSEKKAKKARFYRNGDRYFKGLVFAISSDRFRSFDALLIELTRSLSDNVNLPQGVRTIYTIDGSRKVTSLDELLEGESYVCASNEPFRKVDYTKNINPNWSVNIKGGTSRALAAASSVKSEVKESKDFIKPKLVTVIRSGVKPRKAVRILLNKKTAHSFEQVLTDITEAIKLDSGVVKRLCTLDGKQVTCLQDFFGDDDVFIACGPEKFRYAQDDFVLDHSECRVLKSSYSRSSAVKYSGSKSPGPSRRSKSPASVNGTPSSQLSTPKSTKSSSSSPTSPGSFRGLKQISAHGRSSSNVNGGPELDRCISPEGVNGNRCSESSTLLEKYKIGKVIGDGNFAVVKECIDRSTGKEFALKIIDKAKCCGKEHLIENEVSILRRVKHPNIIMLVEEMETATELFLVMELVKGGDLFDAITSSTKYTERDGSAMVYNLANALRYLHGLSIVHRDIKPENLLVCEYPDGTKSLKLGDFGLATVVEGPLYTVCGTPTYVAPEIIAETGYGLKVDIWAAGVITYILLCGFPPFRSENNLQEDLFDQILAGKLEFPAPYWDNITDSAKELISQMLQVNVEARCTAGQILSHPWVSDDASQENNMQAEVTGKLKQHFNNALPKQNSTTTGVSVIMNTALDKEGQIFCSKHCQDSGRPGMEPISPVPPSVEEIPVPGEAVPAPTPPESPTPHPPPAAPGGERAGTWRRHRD
In words: Selectivity interaction (Kinase screening (Nanosyn)) EUB0000604a DCLK2.

In experiment [4] the target is Mast/stem cell growth factor receptor Kit (Homo sapiens, UniProt P10721). In words: (§1) Selectivity interaction (KinomeScan (DiscoverX)) EUB0001049a KIT. The note with it: at 1 µM.
Mast/stem cell growth factor receptor Kit, sequence (P10721 whole entry): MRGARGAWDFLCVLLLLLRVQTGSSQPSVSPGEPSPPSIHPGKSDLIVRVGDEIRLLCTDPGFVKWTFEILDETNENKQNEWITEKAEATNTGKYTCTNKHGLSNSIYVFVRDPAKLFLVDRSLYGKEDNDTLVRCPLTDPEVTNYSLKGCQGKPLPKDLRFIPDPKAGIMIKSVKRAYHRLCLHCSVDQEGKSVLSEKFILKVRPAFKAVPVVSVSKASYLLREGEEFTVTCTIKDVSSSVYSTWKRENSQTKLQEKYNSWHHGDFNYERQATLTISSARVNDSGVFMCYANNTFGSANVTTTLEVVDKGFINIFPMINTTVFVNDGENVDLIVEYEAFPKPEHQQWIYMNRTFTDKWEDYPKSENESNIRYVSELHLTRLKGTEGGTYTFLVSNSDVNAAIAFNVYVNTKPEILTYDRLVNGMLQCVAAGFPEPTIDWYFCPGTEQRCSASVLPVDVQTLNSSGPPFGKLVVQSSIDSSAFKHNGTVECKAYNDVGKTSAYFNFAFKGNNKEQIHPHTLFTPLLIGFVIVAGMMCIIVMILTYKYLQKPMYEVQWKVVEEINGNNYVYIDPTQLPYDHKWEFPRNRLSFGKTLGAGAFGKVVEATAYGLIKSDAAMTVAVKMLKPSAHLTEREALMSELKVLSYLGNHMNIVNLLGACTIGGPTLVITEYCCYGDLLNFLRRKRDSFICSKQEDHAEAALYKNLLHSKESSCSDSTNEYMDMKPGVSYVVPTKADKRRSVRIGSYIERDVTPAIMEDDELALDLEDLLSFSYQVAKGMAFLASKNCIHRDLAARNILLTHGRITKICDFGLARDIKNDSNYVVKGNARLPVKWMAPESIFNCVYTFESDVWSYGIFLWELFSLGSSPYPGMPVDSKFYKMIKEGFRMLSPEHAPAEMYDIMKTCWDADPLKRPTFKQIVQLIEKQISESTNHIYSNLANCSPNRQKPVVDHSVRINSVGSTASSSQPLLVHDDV
Experiment [5] relates to Mast/stem cell growth factor receptor Kit (Homo sapiens), P10721 [L576P]. Described as §1. The note with it: at 1 µM.
Mast/stem cell growth factor receptor Kit (Homo sapiens), P10721 [L576P], sequence (P10721 whole entry L576P): as the sequence (P10721 whole entry) above, with L576P counted along it
The test system of experiment [6] is Mast/stem cell growth factor receptor Kit (Homo sapiens), P10721 [V559D,V654A]. Described as §1. The note with it: at 1 µM.
Mast/stem cell growth factor receptor Kit (Homo sapiens), P10721 [V559D,V654A], sequence (P10721 whole entry V559D/V654A): as the sequence (P10721 whole entry) above, with V559D, V654A counted along it
The subject of experiment [7] is Mast/stem cell growth factor receptor Kit (Homo sapiens), P10721 [A829P]. Described as §1. The following applies: at 1 µM.
In experiment [8] the test system is Mast/stem cell growth factor receptor Kit (Homo sapiens), P10721 [D816H]. The experiment is described as §1. The following applies: at 1 µM.
Mast/stem cell growth factor receptor Kit (Homo sapiens), P10721 [D816H], sequence (P10721 whole entry D816H): as the sequence (P10721 whole entry) above, with D816H counted along it
Experiment [9] relates to Mast/stem cell growth factor receptor Kit (Homo sapiens), P10721 [V559D]. The experiment is described as §1. The note with it: at 1 µM.
Mast/stem cell growth factor receptor Kit (Homo sapiens), P10721 [V559D], sequence (P10721 whole entry V559D): as the sequence (P10721 whole entry) above, with V559D counted along it
Experiment [10] has as its target T3, Serine/threonine-protein kinase 17B (Homo sapiens) (UniProt O94768).
T3 sequence (whole entry): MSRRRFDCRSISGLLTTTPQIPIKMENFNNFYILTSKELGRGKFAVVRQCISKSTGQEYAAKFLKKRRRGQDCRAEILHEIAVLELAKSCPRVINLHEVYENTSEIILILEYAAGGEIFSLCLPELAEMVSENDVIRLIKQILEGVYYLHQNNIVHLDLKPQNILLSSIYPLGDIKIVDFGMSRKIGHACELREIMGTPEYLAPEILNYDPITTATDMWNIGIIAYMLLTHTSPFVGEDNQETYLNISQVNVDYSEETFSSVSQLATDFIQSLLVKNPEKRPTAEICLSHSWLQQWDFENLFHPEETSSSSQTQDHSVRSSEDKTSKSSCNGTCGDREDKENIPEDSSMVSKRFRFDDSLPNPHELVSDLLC
In words: Selectivity interaction (KinomeScan (DiscoverX)) EUB0000655a STK17B. The note with it: at 10 µM.

For experiment [11], the target named is T4, Serine/threonine-protein kinase Sgk1 (Homo sapiens) (UniProt O00141).
T4 sequence (whole entry): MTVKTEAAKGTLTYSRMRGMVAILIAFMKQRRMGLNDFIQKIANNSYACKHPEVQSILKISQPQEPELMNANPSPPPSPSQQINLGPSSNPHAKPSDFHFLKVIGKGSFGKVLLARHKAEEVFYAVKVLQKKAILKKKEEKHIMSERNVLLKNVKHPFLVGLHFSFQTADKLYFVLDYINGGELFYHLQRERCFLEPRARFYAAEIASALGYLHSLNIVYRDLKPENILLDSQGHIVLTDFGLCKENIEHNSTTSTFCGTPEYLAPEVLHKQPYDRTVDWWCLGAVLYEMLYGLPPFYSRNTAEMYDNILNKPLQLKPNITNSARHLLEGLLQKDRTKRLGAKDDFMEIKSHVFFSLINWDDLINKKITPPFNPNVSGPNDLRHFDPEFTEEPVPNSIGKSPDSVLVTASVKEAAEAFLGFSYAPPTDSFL
In words: Selectivity interaction (KinomeScan (DiscoverX)) EUB0000229b SGK1. The following applies: at 10 µM.

Mast/stem cell growth factor receptor Kit (Homo sapiens), P10721 [A829P], sequence (P10721 whole entry A829P): as the sequence (P10721 whole entry) above, with A829P counted along it
Ribosomal protein S6 kinase alpha-6, sequence (Q9UK32 whole entry): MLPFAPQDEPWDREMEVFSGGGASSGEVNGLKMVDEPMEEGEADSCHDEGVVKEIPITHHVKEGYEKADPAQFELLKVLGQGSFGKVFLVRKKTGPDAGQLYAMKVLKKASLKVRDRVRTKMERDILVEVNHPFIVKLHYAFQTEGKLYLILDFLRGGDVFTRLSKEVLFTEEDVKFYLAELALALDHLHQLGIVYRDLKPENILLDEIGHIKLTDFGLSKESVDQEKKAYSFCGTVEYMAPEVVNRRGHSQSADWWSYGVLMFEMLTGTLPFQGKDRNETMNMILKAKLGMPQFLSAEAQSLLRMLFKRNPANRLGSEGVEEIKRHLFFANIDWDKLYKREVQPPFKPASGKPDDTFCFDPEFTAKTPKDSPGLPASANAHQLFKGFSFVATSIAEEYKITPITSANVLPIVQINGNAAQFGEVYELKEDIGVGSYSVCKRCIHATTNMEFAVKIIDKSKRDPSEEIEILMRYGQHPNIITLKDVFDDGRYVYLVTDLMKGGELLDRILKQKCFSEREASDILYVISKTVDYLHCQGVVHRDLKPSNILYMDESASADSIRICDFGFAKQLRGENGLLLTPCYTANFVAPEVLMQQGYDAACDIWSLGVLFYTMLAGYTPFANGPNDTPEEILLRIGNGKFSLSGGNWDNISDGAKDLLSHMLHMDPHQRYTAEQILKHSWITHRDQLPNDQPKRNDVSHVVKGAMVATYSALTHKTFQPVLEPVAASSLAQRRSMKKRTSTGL

`N#Cc1cccc(-c2c[nH]c3ncnc(N4CCOCC4)c23)c1` showed a % of control in experiment [1] of 9.8%.
`CCN(CC)CCCCNc1ncc2cc(-c3cc(OC)cc(OC)c3)c(NC(=O)NC(C)(C)C)nc2n1` showed a % of control in experiment [2] of 100%.
`Cc1cnc(Nc2ccc(F)cc2Cl)nc1-c1c[nH]c(C(=O)N[C@H](CO)c2cccc(Cl)c2)c1` came in with a % of inhibition in experiment [3] of 1%.
With `COc1cc(Nc2nc(C)cc(-c3cnn4nc(OC)ccc34)n2)cc(C(F)(F)F)c1`, the % of control in [4] was 89%; in [5], 100%; in experiment [6], 62%; in experiment [7], 84%; in experiment [8], 66%; in experiment [9] it was 80%.
Regarding `CN(C)CCOc1ccc(-c2nc(-c3ccncc3)c(-c3ccc4c(c3)CC/C4=N\O)[nH]2)cc1`, the % of control in experiment [10] was 87%.
`COc1cc(N(C)c2ccnc3ccc(C(F)(F)F)cc23)cc(OC)c1OC`: the % binding in experiment [11] was found to be 97%.
